Data taken from patent US20180042918A1, “RESPIRATORY INFECTION TREATING AGENT” (KYORIN PHARMACEUTICAL CO., LTD., priority 2015, published 2018).
Values after ≈ are worked out from the molar mass of the structure shown. Where two headings read alike, the source gives them in different places. Marks after values point to notes of the source that are not given here.

Key:
S. pneumoniae SN9981 = experiment: microbe, parasite or virus in culture; assay type: cell-based; details: Streptococcus pneumoniae
[1] = target: QUINOLONE RESISTANT DNA gyrase (quinolone-resistant S. aureus) (Staphylococcus aureus, UniProt P20831); experiment: Enzyme inhibitory activity, supercoiling of relaxed pBR322; assay type: biochemical
Experimental: (§1) Agents Chemother. 45: 3544-3547 (2001). […] The measurement was performed in the same manner as in Test Example 3. Similarly, the inhibitory activities of ciproxacin, levofloxacin, and garenoxacin were measured. The results were compared.

[2] = target: DNA gyrase derived from S. aureus (Staphylococcus aureus, UniProt P0A0K8+P20831); experiment: as above; assay type: biochemical
Experimental: as §1

S. aureus MS5935 2nd = experiment: microbe, parasite or virus in culture; assay type: cell-based; details: Staphylococcus aureus, MS59352ND
S. pneumoniae ATCC49619 [3] = experiment: Frequency of development of resistant bacteria; assay type: cell-based, Streptococcus pneumoniae; details: for FREQUENCY OF DEVELOPMENT OF RESISTANT BACTERIA (AVERAGE OF TWO MEASURED VALUES): about 70 hours
Experimental: (§2) S. aureus ATCC29213 is Staphylococcus aureus, S. pneumoniae ATCC49619 is Streptococcus pneumoniae, and E. coli ATCC25922 is Escherichia coli. […]
(§3) The frequency of development of resistant bacteria was calculated by dividing the number of colonies developed on an agar medium having each drug concentration by the number of initially inoculated bacteria.

S. pneumoniae NF9884 = experiment: microbe, parasite or virus in culture; assay type: cell-based; details: Streptococcus pneumoniae
S. pneumoniae ST9941 = experiment: microbe, parasite or virus in culture; assay type: cell-based; details: Streptococcus pneumoniae
S. pneumoniae ATCC49619 [4] = experiment: microbe, parasite or virus in culture; assay type: cell-based; details: Streptococcus pneumoniae
S. pneumoniae SF9863 = experiment: microbe, parasite or virus in culture; assay type: cell-based; details: Streptococcus pneumoniae
S. aureus MS5935 4th = experiment: microbe, parasite or virus in culture; assay type: cell-based; details: for MIC: Staphylococcus aureus, MS59354TH
E. coli ATCC25922 [5] = experiment: Frequency of development of resistant bacteria; assay type: cell-based, Escherichia coli; details: for FREQUENCY OF DEVELOPMENT OF RESISTANT BACTERIA (AVERAGE OF TWO MEASURED VALUES): about 70 hours
Experimental: as §2, §3

[6] = target: DNA gyrase derived from S. pneumoniae IID553 (Streptococcus pneumoniae serotype 4, UniProt P0A4L9+P72524); experiment: Enzyme inhibitory activity, supercoiling of relaxed pBR322
[7] = target: QUINOLONE RESISTANT Topoisomerase IV (S. aureus) (Staphylococcus aureus, UniProt P0C1U9); experiment: Enzyme inhibitory activity, decatenation of kinetoplast DNA; assay type: biochemical
Experimental: as §1

[8] = target: Topoisomerase IV (S. aureus) (Staphylococcus aureus, UniProt P0C1S7+P0C1U9); experiment: as above; assay type: biochemical
Experimental: as §1

S. aureus MS5935 = experiment: Antibacterial activity against quinolone-resistant strain in vitro, CLSI dilution; assay type: cell-based; details: Staphylococcus aureus; S. aureus MS5935, PARENT STRAIN, gyrA None, grlA None
S. aureus ATCC29213 [9] = experiment: Frequency of development of resistant bacteria; assay type: cell-based, Staphylococcus aureus; details: for development of resistant bacteria (in words): S. aureus ATCC29213, 4 to 16 × MIC; for FREQUENCY OF DEVELOPMENT OF RESISTANT BACTERIA (AVERAGE OF TWO MEASURED VALUES): about 70 hours
Experimental: as §2, §3

E. coli ATCC25922 [10] = experiment: microbe, parasite or virus in culture; assay type: cell-based; details: Escherichia coli
[11] = test system: S. aureus MS5935 gyrA mutant; experiment: microbe, parasite or virus in culture; assay type: cell-based; details: Staphylococcus aureus
S. aureus MS5935 1st = experiment: microbe, parasite or virus in culture; assay type: cell-based; details: Staphylococcus aureus, MS59351ST
S. pneumoniae CF9842 = experiment: microbe, parasite or virus in culture; assay type: cell-based; details: Streptococcus pneumoniae
S. aureus ATCC29213 [12] = experiment: MIC of strain used for resistance frequency test; assay type: cell-based; details: Staphylococcus aureus; S. aureus ATCC29213; read-out: MIC
[13] = target: Topoisomerase IV (S. pneumoniae IID553) (Streptococcus pneumoniae serotype 4, UniProt P72525+Q59961); experiment: Enzyme inhibitory activity, decatenation of kinetoplast DNA
S. pneumoniae GF9821 = experiment: microbe, parasite or virus in culture; assay type: cell-based; details: Streptococcus pneumoniae
[14] = test system: M. catarrhalis (26 STRAINS); experiment: Antibacterial activity against clinically isolated strains, MIC90; assay type: cell-based; details: Moraxella catarrhalis, 26 clinically isolated strains
Experimental: (§4) The antibacterial activities in vitro of the compound D, garenoxacin, and levofloxacin against each clinically isolated strain of Streptococcus pneumoniae, Moraxella catarrhalis, and Haemophilus influenzae were measured in accordance with a CLSI microdilution method or a CLSI agar dilution method. A MIC90 value was the minimum concentration in which the growth of 90% strain of all the measured strains was inhibited.

[15] = test system: PCG-LOW SENSITIVE S. pneumoniae (22 STRAINS); experiment: as above; assay type: cell-based; details: Streptococcus pneumoniae, 22 clinically isolated strains
Experimental: as §4

[16] = test system: H. influenzaes (26 STRAINS); experiment: as above; assay type: cell-based; details: Haemophilus influenzae, 26 clinically isolated strains
Experimental: as §4

PSSP (26 STRAINS) = experiment: as above; assay type: cell-based; details: Streptococcus pneumoniae, 26 clinically isolated strains
Experimental: as §4

S. aureus MS5935 3rd = experiment: microbe, parasite or virus in culture; assay type: cell-based; details: Staphylococcus aureus, MS59353RD
[17] = S. pneumoniae ATCC49619, 4 × MIC
[18] = S. pneumoniae ATCC49619, 8 × MIC
[19] = S. pneumoniae ATCC49619, 16 × MIC

| Structure (SMILES) | MIC (S. pneumoniae SN9981) [µg/mL] | MIC (S. aureus MS5935 2nd) [µg/mL] | FREQUENCY OF DEVELOPMENT OF RESISTANT BACTERIA (AVERAGE OF TWO MEASURED VALUES) (S. pneumoniae ATCC49619 [3]; [17]) | FREQUENCY OF DEVELOPMENT OF RESISTANT BACTERIA (AVERAGE OF TWO MEASURED VALUES) (S. pneumoniae ATCC49619 [3]; [18]) | FREQUENCY OF DEVELOPMENT OF RESISTANT BACTERIA (AVERAGE OF TWO MEASURED VALUES) (S. pneumoniae ATCC49619 [3]; [19]) | MIC (S. pneumoniae NF9884) [µg/mL] | MIC (S. pneumoniae ST9941) [µg/mL] | MIC (S. pneumoniae ATCC49619 [4]) [µg/mL] | MIC (S. pneumoniae SF9863) [µg/mL] | MIC (S. aureus MS5935 4th) [µg/mL] | FREQUENCY OF DEVELOPMENT OF RESISTANT BACTERIA (AVERAGE OF TWO MEASURED VALUES) (E. coli ATCC25922 [5]; E. coli ATCC25922, 4 × MIC) | FREQUENCY OF DEVELOPMENT OF RESISTANT BACTERIA (AVERAGE OF TWO MEASURED VALUES) (E. coli ATCC25922 [5]; E. coli ATCC25922, 8 × MIC) | FREQUENCY OF DEVELOPMENT OF RESISTANT BACTERIA (AVERAGE OF TWO MEASURED VALUES) (E. coli ATCC25922 [5]; E. coli ATCC25922, 16 × MIC) | IC50 [6] [µM] | MIC (S. aureus MS5935) [µg/mL] | development of resistant bacteria (in words) (S. aureus ATCC29213 [9]) | FREQUENCY OF DEVELOPMENT OF RESISTANT BACTERIA (AVERAGE OF TWO MEASURED VALUES) (S. aureus ATCC29213 [9]; S. aureus ATCC29213, 4 × MIC) | FREQUENCY OF DEVELOPMENT OF RESISTANT BACTERIA (AVERAGE OF TWO MEASURED VALUES) (S. aureus ATCC29213 [9]; S. aureus ATCC29213, 8 × MIC) | FREQUENCY OF DEVELOPMENT OF RESISTANT BACTERIA (AVERAGE OF TWO MEASURED VALUES) (S. aureus ATCC29213 [9]; S. aureus ATCC29213, 16 × MIC) | MIC (E. coli ATCC25922 [10]) [µg/mL] | other results |
| --- | --- | --- | --- | --- | --- | --- | --- | --- | --- | --- | --- | --- | --- | --- | --- | --- | --- | --- | --- | --- | --- |
| COc1c(N2C[C@H](CNC3CC3)[C@H](F)C2)c(F)cc2c(=O)c(C(=O)O)cn(CCF)c12.Cl [Compound D, 7-[(3S,4S)-3-{(cyclopropylamino)methyl}-4-fluoropyrrolidine-1-yl]-6-fluoro-1-(2-fluoroethyl)-8-methoxy-4-oxo-1,4-dihydroquinoline-3-carboxylic acid hydrochloride] | 0.25 | 0.125 | <1.1 × 10^−8 | <1.1 × 10^−8 | <1.1 × 10^−8 | 0.125 | 0.5 | 0.06 | 0.06 | 2 | <1.9 × 10^−9 | <1.9 × 10^−9 | <1.9 × 10^−9 | 12.6 | 0.015 | not observed | <2.1 × 10^−9 | <2.1 × 10^−9 | <2.1 × 10^−9 | 0.06 | IC50 ([1]; read-out: IC50 VALUE, QUINOLONE RESISTANT DNA gyrase, average of three or average ± SD): 35.7 µM; IC50 [2]: 3.57 µM; development of resistant bacteria (in words) (S. pneumoniae ATCC49619 [3]; S. pneumoniae ATCC49619, 4 to 16 × MIC): not observed; potency (action strength) relative to the other quinolone compounds (S. aureus MS5935 4th; 4th step quadruple mutant S. aureus, from MIC): ≥ 16 times; development of resistant bacteria (in words) (E. coli ATCC25922 [5]; E. coli ATCC25922, 4 to 16 × MIC): not observed; IC50 ([7]; read-out: IC50 VALUE, QUINOLONE RESISTANT Topoisomerase IV): 5.88 µM; IC50 [8]: 1.53 µM; MIC [11]: 0.03 µg/mL; MIC (S. aureus MS5935 1st): 0.03 µg/mL; MIC (S. pneumoniae CF9842): 0.06 µg/mL; MIC (S. aureus ATCC29213 [12]): 0.008 µg/mL; IC50 [13]: 2.73 µM; MIC (S. pneumoniae GF9821): 0.125 µg/mL; MIC90 [14]: 0.06 µg/mL; MIC90 [15]: 0.06 µg/mL; MIC90 [16]: 0.06 µg/mL; MIC90 (PSSP (26 STRAINS)): 0.06 µg/mL; MIC (S. aureus MS5935 3rd): 0.5 µg/mL |
| C[C@H]1NCc2cc(-c3ccc4c(=O)c(C(=O)O)cn(C5CC5)c4c3OC(F)F)ccc21 [GRNX, garenoxacin] | 1 (≈ 2.35 µM) | 2 (≈ 4.69 µM) | <1.1 × 10^−8 | <1.1 × 10^−8 | <1.1 × 10^−8 | 0.125 (≈ 0.293 µM) | 2 (≈ 4.69 µM) | 0.06 (≈ 0.141 µM) | 0.25 (≈ 0.586 µM) | 32 (≈ 75 µM) | <1.9 × 10^−9 | <1.9 × 10^−9 | <1.9 × 10^−9 | 84.4 | 0.015 (≈ 0.0352 µM) | developed | 8.2 × 10^−9* | <2.1 × 10^−9 | <2.1 × 10^−9 | 0.03 (≈ 0.0704 µM) | IC50 ([1]; average of three or average ± SD, read-out: IC50 VALUE, QUINOLONE RESISTANT DNA gyrase (converted)): 985 µM; IC50 ([2]; S. aureus enzyme, average of three or average ± SD, read-out: IC50 VALUE, DNA gyrase (converted)): 25.8 µM; IC50 ([7]; read-out: IC50 VALUE, QUINOLONE RESISTANT Topoisomerase IV (converted)): 63.3 µM; IC50 ([8]; S. aureus enzyme, read-out: IC50 VALUE, Topoisomerase IV (converted)): 4.46 µM; MIC [11]: 0.06 µg/mL (≈ 0.141 µM); MIC (S. aureus MS5935 1st): 0.03 µg/mL (≈ 0.0704 µM); MIC (S. pneumoniae CF9842): 0.125 µg/mL (≈ 0.293 µM); MIC (S. aureus ATCC29213 [12]): 0.015 µg/mL; IC50 [13]: 5.16 µM; MIC (S. pneumoniae GF9821): 0.25 µg/mL (≈ 0.586 µM); MIC90 [14]: 0.015 µg/mL (≈ 0.0352 µM); MIC90 [15]: 0.06 µg/mL (≈ 0.141 µM); MIC90 [16]: 0.015 µg/mL (≈ 0.0352 µM); MIC90 (PSSP (26 STRAINS)): 0.06 µg/mL (≈ 0.141 µM); MIC (S. aureus MS5935 3rd): 8 µg/mL (≈ 18.8 µM) |
